Target: T1, PAQR9 (Homo sapiens, UniProt Q6ZVX9)
T1 construct: expressed in transfected cells; host or cells: Saccharomyces cerevisiae BY4742, GAL1-driven pYES260 plasmid
T1 sequence (Q6ZVX9 1-377): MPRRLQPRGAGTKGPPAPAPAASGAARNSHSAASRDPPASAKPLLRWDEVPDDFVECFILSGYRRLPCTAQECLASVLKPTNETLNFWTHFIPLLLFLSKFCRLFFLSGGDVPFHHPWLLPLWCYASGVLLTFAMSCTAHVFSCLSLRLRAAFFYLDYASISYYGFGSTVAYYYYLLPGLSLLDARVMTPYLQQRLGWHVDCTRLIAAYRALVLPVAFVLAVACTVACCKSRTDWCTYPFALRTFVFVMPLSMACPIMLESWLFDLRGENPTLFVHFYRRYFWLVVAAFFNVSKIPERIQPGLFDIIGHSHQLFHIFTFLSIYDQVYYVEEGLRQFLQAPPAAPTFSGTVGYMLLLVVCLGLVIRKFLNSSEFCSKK
Assay: FET3-lacZ reporter repression in yeast expressing PAQR9
Assay type: cell-based
Description: Plasmids and primers. Human PAQRs were cloned into various vectors by PCR from commercially/publically available cDNAs. PAQRs were cloned into the pYES260 (Melcher, 2000), pRS316 (Liu et al., 1992) or pGREG536 (Jansen et al., 2005) expression vectors using gap repair. The pJK90 plasmid containing a Dual Topology Reporter (DTR)-tagged OST4 gene driven by the constitutive TPI1 promoter was kindly provided by Dr. Gunnar von Heijne (Stockholm University) (Kim et al., 2003). The OST4 open reading frame in pJK90 was replaced with the PAQR6 and mPRα open reading frames by gap repair. Primers for all cloning reactions are listed herein. Proteins expressed in pYES260 have an N-terminal 6×-histidine tag followed by a TEV protease cleavage site. Proteins expressed in pGREG536 have an N-terminal 7×-HA tag. Proteins expressed in the pRS316 vector are untagged. The pYES260, pRS316 and pGREG536 vectors allow for galactose-inducible expression via the GAL1 promoter. […] The FET3-lacZ plasmid was previously described (Kupchak et al., 2007). Plasmids derived from pADM4 carrying hyperactive alleles of Gpa1p (Gpa1p^Q323L) (Slessareva et al., 2006) and Gpa2p (Gpa2p^Q300L) (Harashima et al., 2002) driven by the ADH1 promoter were kindly provided by Dr. Henrik Dohlman (UNC Chapel Hill). A pRS316-based plasmid containing the STE2 gene under the control of the GAL1 promoter (Feng et al., 2000) was kindly provided by Dr. Nicholas G. Davis (Wayne State University).
Assays and growth conditions. Strains were maintained using standard protocol and grown in synthetic defined (SD) media with the appropriate amino acids to match the auxotrophies of the individual strains. Low Iron Medium (LIM) contains EDTA to limit iron-bioavailability and its composition has been previously described (Kupchak et al., 2007). […] Cells were allowed to grow to mid-log phase at which time the activity of the FET3 gene was monitored using a FET3-lacZ promoter-reporter construct. lacZ activities are presented as a percentage of activity seen in untreated cells expressing the appropriate empty expression vector control. […]

## CC(=O)[C@H]1CC[C@H]2[C@@H]3CCC4=CC(=O)CC[C@]4(C)[C@H]3CC[C@]12C [Progesterone, progesterone]
PAQR9, Table 3
  EC50: 13.8 nM
Higher than the other four Class II receptors
  EC50 for progesterone activation of PAQR9 relative to the other four Class II receptors: approximately 10 fold

From patent publication US8809001B2, “High throughput assays for inhibitors and activators of PAQR receptors” (University of Florida Research Foundation, Inc., priority 2007, dated 2014)
